Assay results from paper PMC9822155, “Synthesis and Antiproliferative Activity against Cancer Cells of Indole-Aryl-Amide Derivatives” (Molecules, 2022).

Tests used:
[1] = test system: I407 (human embryonic intestinal) cells; assay: MTT viability assay, I407; type: cell-based; conditions: 24 h, normal cells
From the text: (§1) To investigate whether the compounds have an antitumor activity, we performed in vitro viability assays against a panel of cancer cell lines: HT29 (human colorectal adenocarcinoma), HeLa (human cervical carcinoma), IGROV-1 (human ovarian carcinoma), MCF7 (human breast cancer), PC-3 (human prostate adenocarcinoma), and Jurkat J6 (human […]). The I407 (human embryonic intestinal) and 3T3 (mouse embryonic fibroblast) cells were used as controls. The growth inhibitory concentration was determined by incubating the cells with increasing concentrations (0.01–500 μM) of the compounds for 24 h. Data obtained from cell growth assays were elaborated to assess the concentration of cell viability (IC50) and selectivity indices (SI), and the results are shown in Table 2 and Table 3, respectively.
(§2) HT29 human colorectal adenocarcinoma cells, HeLa human cervix adenocarcinoma cells, MCF7 human breast adenocarcinoma cells, PC-3 human prostate adenocarcinoma cells, J6 Jurkat Clone E6-1 acute T cell leukemia, the healthy I407 human intestine cells, and mouse embryonic fibroblast 3T3 fibroblasts as controls cell lines were purchased from American Type Culture Collection (ATCC, Manassas, VA). The human ovarian cancer cell line IGROV1 has been kindly provided by Prof. Colnaghi (Istituto Nazionale Tumori (IRCCS) (Milano, Italy). Cells were cultured in RPMI 1640 medium (Labtek Eurobio, Milan, Italy), supplemented with 10% FCS (Euroclone, Milano, Italy) and 2 mM L-glutamine (Sigma-Aldrich, Milano, Italy), at 37 °C, and a 5% CO2 atmosphere. The compounds were dissolved in DMSO in a 30–40 mM stock solution. In cell treatments, the final DMSO concentration never exceeded 0.1%.
(§3) Cells were seeded at 1.5 × 10^4 cells/well in a 96-well culture plastic plate (Sarsted, Milan, Italy), and after 24 h of growth were exposed to increasing concentrations of each distinct compound (from 0.010 μM to 500 μM) solubilized in RPMI 1640 medium. MTT assay was performed according to the literature. In brief, after 24 h of treatment, the culture medium was replaced with 0.1 mL of 3-(4,5-dimethylthiazolyl-2)-2,5-diphenyltetrazolium bromide (MTT, Sigma-Aldrich, Milano, Italy) dissolved in PBS at the concentration of 0.2 mg/mL, and samples were incubated for 2 h at 37 °C. The absorbance at 570 nm was measured using a multiwell plate reader (Tecan, Männemorf, Switzerland), and data were analyzed by Prism GraphPad software, and expressed as IC50 μM.

[2] = test system: HT29 (human colorectal adenocarcinoma) cells; assay: MTT viability assay, HT29; type: cell-based
From the text: as §1, §2, §3

[3] = test system: CDKN1B, CDKN1A and Bax transcription in HT29 cells; assay: Quantitative real-time PCR of CDKN1B, CDKN1A, Bax; type: cell-based, human; conditions: HT29, 5 μM, 6 h, normalized to G3PDH, vs. control
Protocol: To verify whether the epigenetic modifications were related to changes in gene expression, we proceeded with the qtRT-PCR analysis and western blot of related protein products. Transcription levels of CDKN1B, CDKN1A, and Bax were analysed by RT-PCR performed on cDNA of HT29 control and treated with 5 μM of 5 for 6 h.
24 h after seeding, HT29 cells have been treated with 5 µM 5 for 6 h. Total RNA has been isolated by RNeasy Mini kit (Qiagen, Hilden, Germany) according to the manufacturer’s protocol. 1 μg of RNA has been reverse-transcribed with RevertAid First Strand cDNA Synthesis Kit (Fermentas, Ontario, Canada) by using oligo(dT) primers. The cDNA has been analyzed by quantitative Real-Time PCR (qRT-PCR), by employing the LightCycler FastStart DNA Master SYBR Green I Kit and the LightCycler 2.0 instrument (Roche Diagnostics, Manheim, Germany). Gene expression has been quantified by ΔΔCT method, by using G3PDH as the housekeeping gene. The following primers were used: 5′-[…]-3′ (forward) and 5′-[…]-3′ (reverse) for G3PDH detection, 5′-[…]-3′ (forward) and 5′-[…]-3′ (reverse) for p27 detection 5′-[…]-3′(forward) and 5′-[…]-3′ (reverse) for p21 WAF1 detection, 5′-GATGCGTCCACCAAGAAGC-3′ (forward) and 5′-CCGCCACAAAGATGGTCAC -3′ (reverse) for Bax detection.

[4] = test system: p27, p21 and Bax proteins in HT29 cells; assay: Western blot of p27, p21, Bax proteins; type: cell-based, human; conditions: HT29, 5 μM, 24 h
Protocol: P27, p21, and Bax proteins expressions were analysed by western blot in control HT29 and treated with 5 μM of 5 for 24 h.
HT29 cells were seeded in 25 cm^2 flasks at a density of 2 × 10^4 cells/cm^2, and after 24 h, they were treated with 5 μM of compound 5. After 24 h, both treated and control cells were washed twice with PBS and lysed in RIPA buffer [50 mMTris/HCl, 150 mMNaCl, SDS (1% v/v), Triton X-100 (1% v/v), 1 mM EDTA, pH 7.6]. Cell lysates were centrifuged at 12,000× g for 20 min, and the protein concentration was determined by using the Bio-Rad protein assay method (Bio-Rad, Hercules, CA, USA). The proteins were detected resolving samples on a 12% gel in Tris-Glycine buffer at 200 V for 50 min. Western Blot was performed in transfer buffer at 100 V for 1 h. The nitrocellulose membrane was incubated with primary antibodies for rabbit anti-p21 (Millipore, Billerica, MA, USA) or rabbit anti-p27 (Millipore, Billerica, MA) or mouse anti-Bax (Millipore, Billerica, MA, USA) or mouse anti-α tubulin (Invitrogen, Walthman, MA, USA) for 1 h. Detection of immunoreactive bands was performed by using a rabbit or mouse HRP-conjugated secondary antibody (GE Healthcare, Milan, Italy), followed by Amersham ECL Plus Western Blotting Detection System (GE Healthcare, Milan, Italy). Densitometry analysis of immunoreactive bands was done by Fluor-S Max MultiImager (Bio-Rad, Hercules, CA, USA). Relative quantification of bands was performed by using an α-tubulin signal as control.

IC50 ([2]; Homo sapiens, HT-29, MTT, 24 h): 2.61 ± 0.05 µM
SMILES: Nc1ccc(CN(Cc2ccc(O)cc2)C(=O)Cc2c[nH]c3ccccc23)cc1 [Compound 5]
IC50 [µM] I407 [1]: no activity | IC50 ([1]; Homo sapiens): > 500 µM | Selectivity Index IC503T3/ IC50HT29 ([2]; 3T3 normal cells as reference): 12.26 | Bax gene expression (fold change) [3]: 2.58 ± 0.11 | CDKN1A gene expression (fold change) [3]: 4.16 ± 0.53 | CDKN1B gene expression [3]: did not modify the gene expression | Bax protein expression [4]: increase | p21 protein expression [4]: increase | p27 protein expression [4]: did not modify the expression
